The data set in a line: Measurement of log P values by HPLC on reversed phase columns (methods [a] pH 2.3, [b] pH 2.7, [c] pH 7.8). Conditions: HPLC reversed phase. The format is physicochemical. As for the experimental part: Measurement of log P-Values:
Measurement of log P Values was Performed According EEC Directive 79/831 Annex V.A8 by HPLC (High Performance Liquid
Chromatography) on reversed phase columns with the following methods: ^[a] Measurement was done at pH 2.3 with 0.1% phosphoric acid and acetonitrile as eluent with a linear gradient from 10% acetonitrile to 95% acetonitrile. ^[b] measurement of LC-MS was done at pH 2.7 with 0.1% formic acid in water and with acetonitrile (contains 0.1% formic acid) as eluent with a linear gradient from 10% acetonitrile to 95% acetonitrile. ^[c] Measurement with LC-MS was done at pH 7.8 with 0.001 molar ammonium hydrogen carbonate solution in water as eluent with a linear gradient from 10% acetonitrile to 95% acetonitrile.
Calibration was done with linear alkan-2-ones (with 3 to 16 carbon atoms) with known log P-values (measurement of log P values using retention times with linear interpolation between successive alkanones). Lambda-max-values were determined using UV-spectra from 200 nm to 400 nm and the peak values of the chromatographic signals.

This note sets out measurements from patent US20160075653A1, “NEMATICIDAL N-(PHENYLCYCLOALKYL)CARBOXAMIDES AND N-(PHENYLCYCLOALKYL)THIOCARBOXAMIDES” (BAYER CROPSCIENCE AKTIENGESELLSCHAFT, priority 2013, published 2016).

As for `Cc1ccsc1C(=O)N[C@@H]1CCC[C@H]1c1ccc(F)c(F)c1` (relative stereo) [Example 136], the logP (method [b], pH 2.7) is 3.46^[b].

In the case of `O=C(N[C@@H]1CC[C@H]1c1ccccc1Cl)c1ccc(Cl)cc1Cl` (relative stereo) [Example 240], under “method [b], pH 2.7”, the logP was 3.84^[b].

Regarding `O=C(N[C@@H]1CC[C@H]1c1ccccc1Cl)c1ccccc1I` (relative stereo) [Example 241], the logP (method [b], pH 2.7) is 3.46^[b].

For `O=C(N[C@@H]1CC[C@H]1c1ccccc1Cl)c1ccccc1C(F)(F)F` (relative stereo) [Example 242], where the note is “method [b], pH 2.7”, the logP is 3.45^[b].

For `O=C(N[C@@H]1CC[C@H]1c1ccccc1Cl)c1c(F)cccc1F` (relative stereo) [Example 243], the logP (method [b] (pH 2.7)) is 3.11^[b].

As to `O=C(N[C@@H]1CC[C@H]1c1ccccc1Cl)c1ccccc1Br` (relative stereo) [Example 244], for the setting “method [b] (pH 2.7)”, the logP is 3.33^[b].

For `O=C(N[C@@H]1CC[C@H]1c1ccccc1Cl)c1cccnc1C(F)(F)F` (relative stereo) [Example 245], the logP (method [b] (pH 2.7)) was 2.89^[b].

In the case of `O=C(N[C@@H]1CC[C@@H]1c1ccccc1Cl)c1ncc(C(F)(F)F)cc1Cl` (relative stereo) [Example 246], the logP (method [b] (pH 2.7)) is 3.77^[b].

On to `O=C(N[C@@H]1CC[C@@H]1c1ccccc1Cl)c1ccc(Cl)cc1Cl` (relative stereo) [Example 249], for which the logP (method [b] (pH 2.7)) is 3.65^[b].

Turning to `Cn1cc(C(=O)N[C@@H]2CC[C@@H]2c2ccccc2Cl)c(C(F)F)n1` (relative stereo) [Example 255], the logP (method [b] (pH 2.7)) is 2.47^[b].

As for `O=C(N[C@@H]1CC[C@H]1c1ccc(Cl)cc1Cl)c1ncccc1Cl` (relative stereo) [Example 257], under “method [b] (pH 2.7)”, the logP is 3.69^[b].

As for `O=C(N[C@@H]1CC[C@H]1c1ccc(Cl)cc1Cl)c1ncc(C(F)(F)F)cc1Cl` (relative stereo) [Example 258], for the setting “method [b] (pH 2.7)”, the logP is 4.53^[b].

As for `O=C(N[C@@H]1CC[C@@H]1c1ccc(Cl)cc1Cl)c1ncc(C(F)(F)F)cc1Cl` (relative stereo) [Example 259], the logP (method [b] (pH 2.7)) was 4.23^[b].

On to `Cn1cc(C(=O)N[C@@H]2CC[C@H]2c2ccccc2Cl)c(C(F)F)n1` (relative stereo) [Example 262], for which, where the note is “method [b] (pH 2.7)”, the logP is 2.72^[b].

`Cn1cc(C(=O)N[C@@H]2CC[C@@H]2c2ccccc2C(F)(F)F)c(C(F)F)n1` (relative stereo) [Example 263]: the logP (method [b] (pH 2.7)) is 2.75^[b].

In the case of `O=C(N[C@@H]1CC[C@H]1c1ccc(Cl)cc1Cl)c1ccccc1I` (relative stereo) [Example 264], the logP (method [b] (pH 2.7)) was 4.09^[b].

`O=C(N[C@@H]1CC[C@H]1c1ccc(Cl)cc1Cl)c1ccc(Cl)cc1Cl` (relative stereo) [Example 265]: the logP (method [b] (pH 2.7)) was 4.48^[b].

`O=C(N[C@@H]1CC[C@@H]1c1ccc(Cl)cc1Cl)c1ccc(Cl)cc1Cl` (relative stereo) [Example 266]: under “method [b] (pH 2.7)”, the logP is 4.16^[b].

For the compound `O=C(N[C@@H]1CC[C@H]1c1ccccc1C(F)(F)F)c1c(F)cccc1F` (relative stereo) [Example 267], the logP (method [b] (pH 2.7)) was 3.24^[b].

Take `O=C(N[C@@H]1C[C@@H]1c1ccc(Cl)cc1)c1c(F)cccc1F` (relative stereo) [Example 268]: the logP is, setting by setting: (method [b] (pH 2.7)) 2.64^[b]; (method [c] pH 7.8) 2.59^[c];.

Regarding `O=C(N[C@@H]1C[C@@H]1c1ccc(Cl)cc1)c1ccccc1F` (relative stereo) [Example 269], the logP reads like this: (method [b] (pH 2.7)) 2.79^[b]; (method [c] pH 7.8) 2.75^[c];.

Take `Cn1cc(C(=O)N[C@@H]2CCCC[C@H]2c2ccccc2C(F)(F)F)c(C(F)F)n1` (relative stereo) [Example 288]: the logP (method [b] (pH 2.7)) is 3.56^[b].

On to `O=C(N[C@@H]1CCC[C@H]1c1ccccc1C(F)(F)F)c1cccnc1C(F)(F)F` (relative stereo) [Example 289], for which the logP (method [b] (pH 2.7)) is 3.27^[b].

For `O=C(N[C@@H]1CCC[C@@H]1c1ccc(C(F)(F)F)cc1)c1cccnc1` (relative stereo) [Example 298], the logP is 2.46^[b] (method [b] (pH 2.7)) and 2.46^[c]; (method [c] pH 7.8).

Turning to `O=C(N[C@@H]1CCC[C@@H]1c1ccc(C(F)(F)F)cc1)c1ccccc1C(F)(F)F` (relative stereo) [Example 302], the logP is 3.83^[b] (method [b] (pH 2.7)) and 3.79^[c]; (method [c] pH 7.8).

Regarding `O=C(N[C@@H]1CCC[C@@H]1c1ccc(C(F)(F)F)cc1)c1ccccc1Br` (relative stereo) [Example 303], the logP reads like this: (method [b] (pH 2.7)) 3.73^[b]; (method [c] pH 7.8) 3.68^[c];.

Consider `O=C(N[C@@H]1CCC[C@@H]1c1ccc(C(F)(F)F)cc1)c1c(F)cccc1F` (relative stereo) [Example 304], for which the logP reads like this: (method [b] (pH 2.7)) 3.51^[b]; (method [c] pH 7.8) 3.47^[c];.

Take `O=C(N[C@@H]1CCC[C@@H]1c1ccc(C(F)(F)F)cc1)c1ccccc1[N+](=O)[O-]` (relative stereo) [Example 306]: the logP reads like this: (method [b] (pH 2.7)) 3.31^[b]; (method [c] pH 7.8) 3.27^[c];.

Turning to `O=C(N[C@@H]1CCC[C@@H]1c1ccc(C(F)(F)F)cc1)c1cccnc1Cl` (relative stereo) [Example 315], the logP by setting is: (method [b] (pH 2.7)) 3.04^[b]; (method [c] pH 7.8) 2.98^[c];.

On to `O=C(N[C@@H]1CCC[C@@H]1c1ccccc1F)c1ccccc1Cl` (relative stereo) [Example 316], for which the logP runs as follows: (method [b] (pH 2.7)) 3.12^[b]; (method [c] pH 7.8) 3.08^[c];.

Regarding `CC(C)Oc1ccc([C@H]2CCC[C@H]2NC(=O)c2ccccc2Cl)cc1` (relative stereo) [Example 317], the logP is 3.74^[b] (method [b] (pH 2.7)) and 3.73^[c]; (method [c] pH 7.8).

On to `CC(C)Oc1ccc([C@H]2CCC[C@H]2NC(=O)c2ccccc2[N+](=O)[O-])cc1` (relative stereo) [Example 318], for which the logP was 3.30^[b] (method [b] (pH 2.7)) and 3.25^[c]; (method [c] pH 7.8).

As to `O=C(N[C@@H]1CCC[C@@H]1c1ccccc1F)c1ccccc1Br` (relative stereo) [Example 319], the logP is, setting by setting: (method [b] (pH 2.7)) 3.18^[b]; (method [c] pH 7.8) 3.14^[c];.

Turning to `CC(C)Oc1ccc([C@H]2CCC[C@H]2NC(=O)c2ccccc2C(F)(F)F)cc1` (relative stereo) [Example 325], the logP reads like this: (method [b] (pH 2.7)) 3.90^[b]; (method [c] pH 7.8) 3.84^[c];.

`CC(C)Oc1ccc([C@H]2CCC[C@H]2NC(=O)c2cccnc2Cl)cc1` (relative stereo) [Example 326]: the logP was 3.06^[b] (method [b] (pH 2.7)) and 2.99^[c]; (method [c] pH 7.8).

As to `CC(C)Oc1ccc([C@H]2CCC[C@H]2NC(=O)c2ccccc2Br)cc1` (relative stereo) [Example 327], the logP was 3.81^[b] (method [b] (pH 2.7)) and 3.74^[c]; (method [c] pH 7.8).

As to `O=C(N[C@@H]1CCC[C@@H]1c1ccccc1F)c1c(F)cccc1F` (relative stereo) [Example 328], the logP reads like this: (method [b] (pH 2.7)) 2.95^[b]; (method [c] pH 7.8) 2.90^[c];.

As for `CC(C)Oc1ccc([C@H]2CCC[C@H]2NC(=O)c2c(F)cccc2F)cc1` (relative stereo) [Example 329], the logP (method [b] (pH 2.7)) was 3.55^[b] and the logP (method [c] pH 7.8) is 3.49^[c];.

Consider `O=C(N[C@@H]1CCC[C@@H]1c1ccc(C(F)(F)F)cc1)c1nccnc1C(F)(F)F` (relative stereo) [Example 330], for which the logP (method [b] (pH 2.7)) was 3.55^[b] and the logP (method [c] pH 7.8) is 3.45^[c];.

For `O=C(N[C@@H]1CCC[C@@H]1c1ccc(C(F)(F)F)cc1)c1ncccc1C(F)(F)F` (relative stereo) [Example 331], the logP is 3.36^[b] (method [b] (pH 2.7)) and 3.28^[c]; (method [c] pH 7.8).

For the compound `O=C(N[C@@H]1CCC[C@@H]1c1ccccc1F)c1ccccc1I` (relative stereo) [Example 332], the logP is, setting by setting: (method [b] (pH 2.7)) 3.30^[b]; (method [c] pH 7.8) 3.28^[c];.

As for `CC(C)Oc1ccc([C@H]2CCC[C@H]2NC(=O)c2ccccc2I)cc1` (relative stereo) [Example 333], the logP reads like this: (method [b] (pH 2.7)) 3.92^[b]; (method [c] pH 7.8) 3.89^[c];.

In the case of `CC(C)Oc1ccc([C@H]2CCC[C@H]2NC(=O)c2ccccn2)cc1` (relative stereo) [Example 334], the logP by setting is: (method [b] (pH 2.7)) 2.41^[b]; (method [c] pH 7.8) 2.46^[c];.

For the compound `CC(C)Oc1ccc([C@H]2CCC[C@H]2NC(=O)c2nccnc2Cl)cc1` (relative stereo) [Example 335], the logP is, setting by setting: (method [b] (pH 2.7)) 3.23^[b]; (method [c] pH 7.8) 3.21^[c];.

`O=C(N[C@@H]1CCC[C@@H]1c1ccccc1F)c1nccnc1Cl` (relative stereo) [Example 336]: the logP was 2.61^[b] (method [b] (pH 2.7)) and 2.55^[c]; (method [c] pH 7.8).

Turning to `CC(C)Oc1ccc([C@H]2CCC[C@H]2NC(=O)c2ccc(I)s2)cc1` (relative stereo) [Example 338], the logP (method [b] (pH 2.7)) is 4.43^[b] and the logP (method [c] pH 7.8) was 4.27^[c];.

Take `O=C(N[C@@H]1CCC[C@@H]1c1ccccc1F)c1ccccn1` (relative stereo) [Example 339]: the logP is, setting by setting: (method [b] (pH 2.7)) 1.86^[b]; (method [c] pH 7.8) 1.95^[c];.

In the case of `CC(C)Oc1ccc([C@H]2CCC[C@H]2NC(=O)c2nccnc2C(F)(F)F)cc1` (relative stereo) [Example 340], the logP (method [b] (pH 2.7)) is 3.62^[b] and the logP (method [c] pH 7.8) was 3.55^[c];.

Regarding `O=C(N[C@@H]1CCC[C@@H]1c1ccccc1F)c1nccnc1C(F)(F)F` (relative stereo) [Example 341], the logP was 3.00^[b] (method [b] (pH 2.7)) and 2.94^[c]; (method [c] pH 7.8).
